Measurements taken from patent US11911406B2, “PH-responsive polymer-drug conjugates for enhanced antibacterial efficacy” (priority 2020, dated 2024).
Values after ≈ are worked out from the molar mass of the structure shown.

Legend:
MRSA biofilm = assay: Biofilm inhibition assay (crystal violet); format: cell-based, S. aureus; conditions: 512 μg/mL free streptomycin, 24 h
Experimental: (§1) Biofilm inhibition assays. Exponentially growing bacteria were inoculated into 96 well plates (1×10^4 cell/well) containing MHB broth with 2% (v/w) glucose, incubated under stationary conditions at 37° C. for one day. After biofilm formation, the media was discarded and the plates were washed with PBS to remove the planktonic bacteria. Fresh NMB broth containing serially diluted free streptomycin or PDC were added to the plates and incubated at 37° C. for another 24 h. The media in each well was then removed, and the plates were washed carefully with PBS for 1 time. The biofilm in each well was fixed with 95% ethanol for 15 min and stained with 0.1% crystal violet for 15 min. After washing with Milli-Q water for three times, 33% v/v acetic acid (100 μL/well) was added to solubilize the crystal violet staining. OD 560 in each well was read to determine the biofilm formation. The biofilm formed as described above was also stained with acridine orange and Cy5 labeled PDC, and monitored by CLSM to observe the PDC penetration.

E. coli ATCC 25922 [1] = assay: Evaluation of antibiotic resistance development (serial passaging); format: cell-based; conditions: sub-lethal dose (0.5 MIC)
Experimental: Evaluation of antibiotic resistance development. E. coli ATCC 25922 was employed to study the drug resistance development under sublethal dose treatments of free streptomycin, cationic polymer or the PDC. During a serial of passages, the MIC of each treatment was measured by the broth microdilution method as described above, and the bacteria were exposed to ½MIC at that particular passage. MIC for each passage was recorded and normalized to that of the first passage to determine the drug resistance enhancement.

P. aeruginosa ATCC 27853 = assay: Mouse lung infection model; format: in vivo, ICR mice; conditions: 2 i.v. injections (1 h and 8 h after the infection)
Experimental: Mouse lung infection model. […] In another experiment of monitoring the mice survival for the lung infection model, the P. aeruginosa infected mice were given 2 treatments (1 h and 8 h after the infection) and their survival was observed using Kaplan-Meier curves (n=5).

P. aeruginosa biofilm = assay: Biofilm inhibition assay (crystal violet); format: cell-based; conditions: 256 μg/mL streptomycin
Experimental: as §1

E. coli biofilm = assay: Biofilm inhibition assay (crystal violet); format: cell-based; conditions: 512 μg/mL free streptomycin, 24 h
Experimental: as §1

[2] = system: P. aeruginosa in Raw 264.7 macrophage; assay: Antibacterial activity for intracellular infection; format: cell-based; conditions: Raw 264.7 infected with P. aeruginosa, pH 7.4 and 6.0, 1 day
Experimental: Antibacterial activity for intracellular infection. The antibacterial activity for intracellular infection was tested following the previous report. Briefly, macrophage Raw 264.7 cells were seeded in 96-well plate at a density of 1×10^4 cell/swell overnight and infected with MRSA or P. aeruginosa at a ratio of 10-20 bacteria per macrophage in FBS free RPMI 1640 medium. After 3 h incubation, the cells were washed and cultured in 1640 medium containing 10% FBS and 50 μg/mL gentamycin for one day to prevent the growth of extracellular bacteria. Then the macrophages were treated with free streptomycin or PDC for another day and lysed with Milli-Q water supplemented with 0.1% Triton-X. The cell lysates were serially diluted and the CFU in each well was determined by plating on MHB agar plates.

[3] = system: S. aureus (MRSA ATCC33591); assay: MIC, broth microdilution; format: cell-based; conditions: 24 h, no pH given
Experimental: (§2) Bacterial strains. S. aureus Newman was kindly provided by Prof Douglas Weibel; E. coli ATCC25922, S. aureus ATCC 33591 and P. aeruginosa ATCC 27853 were kindly donated by Prof. David Andes. E. coli DH5a was purchased from Thermo Fisher. The bacteria above were grown in Mueller Hinton Broth (MHB) media (Criterion, Santa Maria, Calif., USA). M. smegmatis mc^2155 strain was kindly donated by Prof. Adel M. Talaat, and was grown in Middlebrook 7H9 broth (HiMedia, West Chester, Pa., USA).
(§3) Minimal inhibitory concentration (MIC) measurements. The MIC of the different treatments on various bacteria strains was determined using the broth microdilution method. Briefly, 100 μL of the respective broth media containing serial twofold dilutions of each compound was placed into a 96-well tissue culture plate. Each bacterial strain was taken from an exponentially growing culture and diluted to 5×10^6 CFU/mL. 10 μL of such microbial suspension was inoculated in each well of the plate, resulting in a final bacteria concentration of approximately 5×10^5 CFU/mL. The bacteria were cultured at 37° C. for 24 h and their growth were observed by reading the optical density (OD) at 600 nm. The MIC was determined as the treatment concentration at which no microbial growth was observed. Broth containing microbial cells alone was used as a positive control and broth without bacteria inoculation was used as a negative control. Each test was carried out in 3 replicates.

S. aureus (Newman) = assay: MIC, broth microdilution; format: cell-based; conditions: 24 h, no pH given
Experimental: as §2, §3

E. coli (DH5 alpha) = assay: MIC, broth microdilution; format: cell-based; conditions: 24 h, no pH given
Experimental: as §2, §3

[4] = system: P. aeruginosa (ATCC 27853); assay: MIC, broth microdilution; format: cell-based; conditions: 24 h, no pH given
Experimental: as §2, §3

M. smegmatis (MC^2 155) = assay: MIC, broth microdilution; format: cell-based; conditions: 24 h, no pH given
Experimental: as §2, §3

E. coli (ATCC 25922) = assay: MIC, broth microdilution; format: cell-based; conditions: 24 h, no pH given
Experimental: as §2, §3

E. coli ATCC 25922 [5] = assay: Live/Dead bacterial staining assay (AO/EB); format: cell-based; conditions: 0.5 h and 3 h
Experimental: Live/Dead bacterial staining assay. Exponentially growing bacteria (E. coli ATCC 25922) were collected by centrifugation at 8000 rpm for 5 min, washed with saline and diluted to OD 600 value of 0.5. The bacterial suspensions were incubated with different treatments at 37° C. for 0.5 h and 3 h, and then washed with saline and stained by acridine orange (10 μg/mL) and ethidium bromide (EB, […]) solution for 15 min. Afterward, the bacteria were collected via centrifugation, washed with saline for 2 times, resuspended in 70% glycerol and spread on glass slides. The live/dead bacteria were observed by a confocal laser scanning microscope (CLSM).

human red blood cells = assay: Hemolysis assay; format: cell-based
Experimental: Hemolysis assay. […] The antibacterial polymer and PDC with different charges were serial diluted with PBS and placed in 96-well plates (100 μL/well). The blood cell suspension (10 μL/well) was added into the wells and incubated at 37° C. for 1 h to allow the complete hemolysis process. […] Following centrifugation at 3000 rpm for 7 min, the supernatant (70 μL/well) was transferred to another clean 96-well plate. OD 560 in each well was monitored by a microplate reader, and hemolysis was calculated using the following formula: […]

[6] = system: HEK 293 human embryonic kidney cells; assay: Cell viability test (MTT cytotoxicity); format: cell-based; conditions: 48 h, no pH given
Experimental: Cell viability test. Cytotoxicity of different components was tested through MTT assays. HEK 293 human embryonic kidney cells were seeded onto a 96-well plate (1×10^4 cells/well) and cultured overnight. The cells were then treated with various polymers or PDCs with serial dilutions for 48 h and their viability was measured by a standard MTT assay. Data were collected by monitoring the difference between the absorbance at 560 nm and 650 nm using a GloMax-Multi Microplate Multimode Reader (Promega, Wis., USA).

[7] = system: broad spectrum of microbes; assay: MIC, broth microdilution, across the strains tested; format: cell-based; conditions: E. coli, MRSA, P. aeruginosa (FIGS. 3G-I)
Experimental: as §2
as §3, with “Broth containing microbial cells alone was used as a positive control and broth without bacteria inoculation was used as a negative control. Each test was carried out in 3 replicates.” left out

What does the source list for `[H]/N=C(/N)N[C@H]1[C@H](O)[C@@H](O)[C@H](O[C@@H]2O[C@@H](C)[C@](O)(C=O)[C@H]2O[C@@H]2O[C@@H](CO)[C@H](O)[C@@H](O)[C@@H]2NC)[C@@H](N/C(N)=N\[H])[C@@H]1O` [Streptomycin, streptomycin, reference compound]?
biofilm remaining (MRSA biofilm): more than 50%; increase in MIC after 20 passages (E. coli ATCC 25922 [1]): 10 fold; mice rescued (survival) (P. aeruginosa ATCC 27853): 40%; biofilm reduced / removed (P. aeruginosa biofilm): 75%; biofilm remaining (E. coli biofilm): more than 50%; antibacterial efficacy on intracellular bacteria (CFU), in words [2]: did not show much therapeutic efficacy; MIC ([3]; Staphylococcus aureus): 16 µg/mL (≈ 27.5 µM); MIC (S. aureus (Newman); Staphylococcus aureus, NEWMAN): 16 µg/mL (≈ 27.5 µM); MIC (E. coli (DH5 alpha); Escherichia coli): 8 µg/mL (≈ 13.8 µM); MIC ([4]; Pseudomonas aeruginosa, ATCC27853): 16 µg/mL (≈ 27.5 µM); MIC (M. smegmatis (MC^2 155); Mycolicibacterium smegmatis, MC^2155): 0.5 µg/mL (≈ 0.86 µM); MIC (E. coli (ATCC 25922); Escherichia coli, ATCC25922): 8 µg/mL (≈ 13.8 µM); bactericidal effect / EB staining, in words (E. coli ATCC 25922 [5]): little EB infiltration at 3 h

“Hex-Cys-Cys-DET2 polymer [Positively-charged polymer]” was tested. Which “hemolytic activity, in words” value (human red blood cells) did it give?
Its value is “only induced hemolysis at a high level of 10 mg/mL”.

Which “hemolytic activity, in words” value (human red blood cells) does the source give for “Hex-Cys-Cys-DET-DMA [Neutralized polymer]” here?
The value was “did not show any hemolytic activity”.

“Hex-Cys-Cys-DET-strep [Positively-charged PDC]” was tested. Which “HEK293 IC50” value [6] did it give?
Its value is greater than 2000 µg/mL.

What about the “MIC S. aureus (MRSA ATCC33591)” value [3] of the same molecule?
The value was 20 µg/mL.

What about the “MIC S. aureus (Newman)” value (S. aureus (Newman)) of the same molecule?
The value was 10 µg/mL.

What about the “MIC E. coli (DH5 alpha)” value (E. coli (DH5 alpha)) of the same molecule?
The value was 20 µg/mL.

What about the “MIC P. aeruginosa (ATCC 27853)” value [4] of the same molecule?
The value was 20 µg/mL.

And the “MIC M. smegmatis (MC^2 155)” value (M. smegmatis (MC^2 155))?
The value was 1.25 µg/mL.

What about the “MIC E. coli (ATCC 25922)” value (E. coli (ATCC 25922)) of the same molecule?
Its value is 20 µg/mL.

What about the “effect of pH (6.0 vs 7.4) on MIC, in words” value [7] of the same molecule?
The value was “MICs were unaffected by pH variation”.
